Converted amounts (≈) assume the structure as drawn.
How the values were obtained:
[1] = test system: Streptococcus pyogenes C203; experiment: MIC, standard agar-dilution assay; format: cell-based; conditions: read-out: MIC
[2] = test system: Staphylococcus epidermidis 222; experiment: MIC, standard agar-dilution assay; format: cell-based; conditions: read-out: MIC
[3] = test system: Streptococcus sp. group D X66; experiment: MIC, standard agar-dilution assay; format: cell-based; conditions: Streptococcus sp. group D X66; read-out: MIC
[4] = test system: Staphylococcus aureus V41; experiment: MIC, standard agar-dilution assay; format: cell-based; conditions: Staphylococcus aureus V41, Penicillin-resistant strain, inducibly-resistant to erythromycin; read-out: MIC
Text: (§1) In addition to excellent in vitro activity against erythromycin-sensitive bacteria, several members of this new series have shown in vitro activity against erythromycin-resistant strains. These include strains which are inducibly-resistant to erythromycin (S.. aureus V41 and X400 and S. epidermidis EPI1) and even strains which are constitutively-resistant (S. epidermidis 270).

[5] = test system: Staphylococcus aureus X400; experiment: MIC, standard agar-dilution assay; format: cell-based; conditions: Staphylococcus aureus X400, Methicillin-resistant strain, inducibly-resistant to erythromycin; read-out: MIC
Text: as §1

[6] = test system: Staphylococcus epidermidis 270; experiment: MIC, standard agar-dilution assay; format: cell-based; conditions: Staphylococcus epidermidis 270, constitutively-resistant to erythromycin
Text: as §1

[7] = test system: Streptococcus pneumoniae Park I; experiment: MIC, standard agar-dilution assay; format: cell-based; conditions: read-out: MIC
[8] = test system: Staphylococcus aureus S13E; experiment: MIC, standard agar-dilution assay; format: cell-based
[9] = test system: Haemophilus influenzae C.L.; experiment: MIC, standard agar-dilution assay; format: cell-based; conditions: Ampicillin-sensitive strain, read-out: MIC
[10] = test system: Staphylococcus aureus X1.1; experiment: MIC, standard agar-dilution assay; format: cell-based; conditions: read-out: MIC
[11] = test system: Streptococcus sp. group D 2041; experiment: MIC, standard agar-dilution assay; format: cell-based; conditions: read-out: MIC
Escherichia coli EC14 = experiment: MIC, standard agar-dilution assay; format: cell-based; conditions: read-out: MIC
Streptococcus pyogenes = experiment: Experimental bacterial infection in mice, ED50; format: in vivo; conditions: Streptococcus pyogenes, po, two doses, dose protecting 50% of animals, read-out: Oral ED50
Procedure: (§2) The new derivatives of this invention have also shown in vivo antimicrobial activity against experimental bacterial infections. When two doses of test compound were administered to mice in experimental infections, the activity observed was measured as an EDso value [effective dose in mg/kg to protect 50% of the test animals: see Warren Wick, et al., J. Bacteriol. 81, 233-235 (1961)].

Streptococcus pneumoniae = experiment: Experimental bacterial infection in mice, ED50; format: in vivo; conditions: Streptococcus pneumoniae, po, two doses, dose protecting 50% of animals, read-out: Oral ED50
Procedure: as §2

Staphylococcus aureus = experiment: Experimental bacterial infection in mice, ED50; format: in vivo; conditions: Staphylococcus aureus, po, two doses, dose protecting 50% of animals, read-out: Oral ED50
Procedure: as §2

[12] = test system: Klebsiella pneumoniae X68; experiment: MIC, standard agar-dilution assay; format: cell-based; conditions: read-out: MIC
[13] = test system: Staphylococcus epidermidis EPI1; experiment: MIC, standard agar-dilution assay; format: cell-based
Text: as §1

[14] = test system: Haemophilus influenzae 76; experiment: MIC, standard agar-dilution assay; format: cell-based; conditions: Haemophilus influenzae 76, Ampicillin-resistant strain; read-out: MIC

Structure (SMILES)	MIC [1] [µg/mL]	MIC [2] [µg/mL]	MIC [3] [µg/mL]	MIC [4] [µg/mL]	MIC [5] [µg/mL]	MIC [6] [µg/mL]	MIC [7] [µg/mL]	MIC [8] [µg/mL]	MIC [9] [µg/mL]	MIC [10] [µg/mL]	MIC [11] [µg/mL]	MIC (Escherichia coli EC14) [µg/mL]	ED50 (Streptococcus pyogenes) [mg/kg]	ED50 (Streptococcus pneumoniae) [mg/kg]	ED50 (Staphylococcus aureus) [mg/kg]	MIC [12] [µg/mL]	MIC [13] [µg/mL]	MIC [14] [µg/mL]
CCCCC/C=C\CCCN[C@@H]1[C@H](C)[C@@H](O)[C@](C)(O)[C@@H](CC)OC(=O)[C@H](C)[C@@H](O[C@H]2C[C@@](C)(OC)[C@@H](O)[C@H](C)O2)[C@H](C)[C@@H](O[C@@H]2O[C@H](C)C[C@H](N(C)C)[C@H]2O)[C@](C)(O)C[C@H]1C [Compound 13]	< 0.008	0.125 (≈ 0.143 µM)	0.06 (≈ 0.0687 µM)	8 (≈ 9.16 µM)	8 (≈ 9.16 µM)	32 (≈ 36.6 µM)	< 0.008	0.25 (≈ 0.286 µM)	2 (≈ 2.29 µM)	0.25 (≈ 0.286 µM)	1 (≈ 1.15 µM)	128 (≈ 147 µM)	–	–	–	–	–	–
CCCCC/C=C/CCCN[C@@H]1[C@H](C)[C@@H](O)[C@](C)(O)[C@@H](CC)OC(=O)[C@H](C)[C@@H](O[C@H]2C[C@@](C)(OC)[C@@H](O)[C@H](C)O2)[C@H](C)[C@@H](O[C@@H]2O[C@H](C)C[C@H](N(C)C)[C@H]2O)[C@](C)(O)C[C@H]1C [Compound 14, 9-Deoxo-9-[(trans-dec-4-enyl)amino]erythromycin]	< 0.008	0.25 (≈ 0.286 µM)	0.125 (≈ 0.143 µM)	8 (≈ 9.16 µM)	16 (≈ 18.3 µM)	32 (≈ 36.6 µM)	< 0.008	0.25 (≈ 0.286 µM)	2 (≈ 2.29 µM)	0.5 (≈ 0.573 µM)	2 (≈ 2.29 µM)	128 (≈ 147 µM)	–	–	–	–	–	–
CC[C@H]1OC(=O)[C@H](C)[C@@H](O[C@H]2C[C@@](C)(OC)[C@@H](O)[C@H](C)O2)[C@H](C)[C@@H](O[C@@H]2O[C@H](C)C[C@H](N(C)C)[C@H]2O)[C@](C)(O)C[C@@H](C)[C@H](NCC#Cc2ccccc2)[C@H](C)[C@@H](O)[C@]1(C)O [Compound 18]	< 0.008	0.5 (≈ 0.589 µM)	0.25 (≈ 0.294 µM)	16 (≈ 18.8 µM)	32 (≈ 37.7 µM)	64 (≈ 75.4 µM)	< 0.008	0.5 (≈ 0.589 µM)	4 (≈ 4.71 µM)	1 (≈ 1.18 µM)	1 (≈ 1.18 µM)	–	26.7	33.9	> 50	–	–	–
CC[C@H]1OC(=O)[C@H](C)[C@@H](O[C@H]2C[C@@](C)(OC)[C@@H](O)[C@H](C)O2)[C@H](C)[C@@H](O[C@@H]2O[C@H](C)C[C@H](N(C)C)[C@H]2O)[C@](C)(O)C[C@@H](C)[C@H](N2CCCCC2)[C@H](C)[C@@H](O)[C@]1(C)O [Compound 72, 9-Deoxo-9-(1-piperidinyl)erythromycin]	1 (≈ 1.25 µM)	8 (≈ 9.96 µM)	4 (≈ 4.98 µM)	> 128	> 128	–	1 (≈ 1.25 µM)	16 (≈ 19.9 µM)	2 (≈ 2.49 µM)	16 (≈ 19.9 µM)	128 (≈ 159 µM)	> 128	23.6	20.6	> 44	> 128	> 128	64 (≈ 79.7 µM)
